Measured values published in patent US20250099431A1, “GLP-1R MODULATING COMPOUNDS” (priority 2020, published 2025).

Key:
GLP-1R = GLP-1R (Homo sapiens (Human), UniProt P43220); assay: GLP-1R activation: cAMP increase in CHO cells stably expressing GLP-1R; type: cell-based; conditions: cAMP increase, 10 point dose response, 30 minutes incubation at 37° C., read-out: EC50
Method in brief: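 CHO cells stably expressing GLP-1R were incubated 1 h at 37 °C in medium with 1% BSA, then exposed to compound in a 10-point dose response for 30 min at 37 °C. cAMP rise was detected by HTRF (Gs Dynamic kit). EC50 came from a sigmoidal fit of response against log agonist concentration.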

[1] = Microsomal stability (liver microsomal assay, mixed cofactors); predicted hepatic clearance; type: in vitro ADME; conditions: liver microsomes 1.0 mg protein/mL (+UDPGA +NADPH), 1 μM analyte, 37° C.; scaled with human liver weight and hepatic blood flow 1.3 L/hr/kg
Method in brief: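 Compound at 1 μM with human or rat pooled liver microsomes, alamethicin-treated, pH 7.4 phosphate, NADPH-regenerating plus UDPGA cofactors, 37° C, sampled 0–70 min. Parent/internal standard ratio by RapidFire QToF MS; half-life from initial log-linear decay, scaled to intrinsic and predicted hepatic clearance and hepatic extraction.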

GLP-1R, sequence (P43220 24-463): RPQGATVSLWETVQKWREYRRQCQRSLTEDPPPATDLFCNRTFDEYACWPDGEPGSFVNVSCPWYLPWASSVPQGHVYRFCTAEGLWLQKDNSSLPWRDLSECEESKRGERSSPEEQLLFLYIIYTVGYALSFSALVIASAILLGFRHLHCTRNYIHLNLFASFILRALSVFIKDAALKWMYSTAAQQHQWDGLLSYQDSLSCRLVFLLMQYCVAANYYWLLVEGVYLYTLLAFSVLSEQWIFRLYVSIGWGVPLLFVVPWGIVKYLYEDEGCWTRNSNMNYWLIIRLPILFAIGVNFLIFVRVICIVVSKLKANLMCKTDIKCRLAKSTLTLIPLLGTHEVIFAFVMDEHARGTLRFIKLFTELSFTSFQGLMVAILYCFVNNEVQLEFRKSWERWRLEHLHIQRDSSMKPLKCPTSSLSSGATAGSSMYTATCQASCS

| EC50 (GLP-1R) [µM] | Predicted Hepatic Clearance (Pred. Cl.) [1] [mL/min/kg] | SMILES |
| --- | --- | --- |
| 0.13 | 12.7 | COCCn1c(Cc2c(F)cc(-c3cccc4c3OC(CCC(=O)O)(c3ccc(Cl)cc3)N4)cc2F)nc2ccc(C(=O)O)cc21 (centres unmarked) [Example 10, 2-(4-(2-(2-carboxyethyl)-2-(4-chlorophenyl)-2,3-dihydrobenzo[d]oxazol-7-yl)-2,6-difluorobenzyl)-1-(2-methoxyethyl)-1H-benzo[d]imidazole-6-carboxylic acid] |
| 0.017 | 4.33 | CC1(c2ccc(Cl)cn2)Oc2cccc(-c3cc(F)c(Cc4nc5ccc(C(=O)O)cc5n4C[C@@H]4CCO4)cc3F)c2O1 (single isomer, unassigned) [Example 46] |
| 0.0063 | 3.17 | COCCn1c(Cc2c(F)cc(-c3cccc4c3OC(C)(c3ccc(C(F)(F)F)cc3F)O4)cc2F)nc2ccc(C(=O)O)cc21 (centres unmarked) [Example 58, 2-(2,6-difluoro-4-(2-(2-fluoro-4-(trifluoromethyl)phenyl)-2-methylbenzo[d][1, 3]dioxol-4-yl)benzyl)-1-(2-methoxyethyl)-1H-benzo[d]imidazole-6-carboxylic acid] |
| 2.27 | 17.8 | COCCn1c(Cc2ccc(-c3cccc4c3OC(C)(c3nc5ccccc5n3C)O4)cc2F)nc2ccc(C(=O)O)cc21 (centres unmarked) [Example 52, 2-[[2-fluoro-4-[2-methyl-2-(1-methylbenzimidazol-2-yl)-1,3-benzodioxol-4-yl]phenyl]methyl]-3-(2-methoxyethyl) benzimidazole-5-carboxylic acid] |
